Measurements from US20240188561A1, “ADDITIVES FOR ENHANCING THE PESTICIDAL EFFECTIVENESS OF PESTICIDAL MICROORGANISMS” (priority 2021, published 2024).

What was measured:
[1] = test system: Bacillus firmus; experiment: Additive compatibility with microbial growth (growth slope by OD 620 nm); type: cell-based; settings: additive 0.01-5 %, exposed 4 hours at 16° C., then tryptic soy broth 30° C., slope compared to 0% sample
[2] = test system: Pseudomonas fluorescens; experiment: as above; type: cell-based; settings: additive 0.01-5 %, exposed 4 hours at 16° C., then tryptic soy broth 30° C., slope compared to 0% sample
[3] = test system: Bacillus subtilis; experiment: as above; type: cell-based; settings: additive 0.01-5 %, exposed 4 hours at 16° C., then tryptic soy broth 30° C., slope compared to 0% sample
[4] = test system: Bacillus amyloliquefaciens; experiment: as above; type: cell-based; settings: additive 0.01-5 %, exposed 4 hours at 16° C., then tryptic soy broth 30° C., slope compared to 0% sample
[5] = test system: Powdery Mildew (Podosphaera xanthii); experiment: Spray trial on pumpkin plants, Powdery Mildew infection; type: in vivo; settings: in words
Procedure: Eight solutions were prepared as described in Table 5a. These solutions were sprayed on pumpkin plants showing no signs of Powdery Mildew (Podosphaera xanthii). […] Six of the solutions included methyl soyate.
Four applications were made over a month to the same pumpkin plants. At the end of the month, the infection rates of Powdery Mildew were evaluated by comparing to untreated pumpkin plants.

Row | Compound | Influence of additive on microbial growth slope (compatibility), Bacillus firmus [1] | Influence of additive on microbial growth slope (compatibility), Pseudomonas fluorescens [2] | Influence of additive on microbial growth slope (compatibility), Bacillus subtilis [3] | Influence of additive on microbial growth slope (compatibility), Bacillus amyloliquefaciens [4] | Control of Powdery Mildew (lower %-Infection) when additive was added to Serifel Biofungicide spray solutions [5]
1 | 2-propylheptanol Alkoxylate with 5 moles EO [xi-4] | S | S | S | S | –
2 | 2-propylheptanol Alkoxylate with 7 moles EO [xi-5] | S | S | S | S | –
3 | 2-propylheptanol POE 5 [xi-3] | S | S | S | S | –
4 | CCCCCCCC/C=C\CCCCCCCC(=O)OC [ii-4, Oleic acid methyl ester] | N | N | N | E (E represents an Enhancing result) | –
5 | CC(O)C(=O)N(C)C (stereo not shown) [xv-1, Dimethyl lactamide] | N | N | S | S | –
6 | Butyl alcohol POP 31 POE 31 [vii-7] | N | N | N | N | –
7 | C8-C10 alkylpolyglycoside [iv-1] | N | N | N | N | –
8 | C8-C10 dimethyl amide [xv-2] | S | S | S | S | –
9 | C8-C10 fatty alcohol [xvi-1] | S | S | S | S | –
10 | C12-C14 dimethyl amide [xv-3] | S | – | S | S | –
11 | C12-C16 alkylpolyglycoside [iv-2] | S | N | S | S | –
12 | C12-C18 fatty acid methyl ester [ii-2] | S | N | N | N | –
13 | Castor Oil POE 16 [vi-3] | N | N | N | N | –
14 | Castor Oil POE 40 [vi-4] | N | – | N | N | –
15 | Dibutyl Naphthalene Sulfonate, Sodium [viii-1] | – | – | E (E represents an Enhancing result) | E (E represents an Enhancing result) | –
16 | Isodecyl alcohol POE6 phosphate ester [xix-3] | S | S | S | S | –
17 | Magnesium Oleate [xviii-1] | S | S | S | – | –
18 | Olleyl-Cetyl alcohol (80% Oleyl) [xvi-2] | S | N | N | N | –

Row | Compound | Influence of additive on microbial growth slope (compatibility), Bacillus firmus [1] | Influence of additive on microbial growth slope (compatibility), Pseudomonas fluorescens [2] | Influence of additive on microbial growth slope (compatibility), Bacillus subtilis [3] | Influence of additive on microbial growth slope (compatibility), Bacillus amyloliquefaciens [4] | Control of Powdery Mildew (lower %-Infection) when additive was added to Serifel Biofungicide spray solutions [5]
19 | Olleyl-Cetyl alcohol (90% Oleyl) [xvi-3] | S | S | S | S | –
20 | PEG 400 monolaurate [v-1] | – | S | N | N | –
21 | PEG 400 monooleate [v-2] | – | S | N | N | –
22 | Sodium Lauryl ether sulfate [xvii-1] | S | S | S | S | –
23 | Sodium Tallowate [xviii-2] | – | S | – | – | –
24 | Sorbitan monolaurate POE 20 [xii-2] | S | S | S | S | –
25 | Sorbitan monooleate POE 20 [xii-3] | S | N | N | N | –
26 | Sorbitan monooleate [xii-1] | S | E (E represents an Enhancing result) | S | S | –
27 | Sorbitan trioleate POE 20 [xii-4] | S | S | N | S | –
28 | Soya fatty acid methyl ester [ii-3] | N | N | N | E (E represents an Enhancing result) | improved control
29 | Soybean Oil POE 10 [vi-1] | S | E (E represents an Enhancing result) | N | N | –
30 | Soybean Oil POE 30 [vi-2] | N | N | S | S | –
31 | Tallow amine POE15 [xiii-1] | S | E (E represents an Enhancing result) | S | S | –
32 | Tallow amine POE20 [xiii-2] | S | – | S | S | –
33 | Tridecyl alcohol POE 3 [xi-1] | S | S | S | S | –
34 | Tridecyl alcohol POE 9 [xi-2] | S | S | S | S | –
35 | Tridecyl alcohol POE 10 phosphate ester [xix-1] | S | S | S | S | –
